Experimental data taken from patent US8658604B2, “Template-fixed beta-hairpin peptidomimetics with protease inhibitory activity” (Polyphor Ltd, priority 2005, dated 2014).
Where a SMILES comes first, the peptide text is derived from it.

molecular target: T1, Elastase from human neutrophils (Homo sapiens, UniProt P08246); experiment: Enzymatic assay, elastase; conditions: Elastase IC50
T1 sequence (P08246 30-267): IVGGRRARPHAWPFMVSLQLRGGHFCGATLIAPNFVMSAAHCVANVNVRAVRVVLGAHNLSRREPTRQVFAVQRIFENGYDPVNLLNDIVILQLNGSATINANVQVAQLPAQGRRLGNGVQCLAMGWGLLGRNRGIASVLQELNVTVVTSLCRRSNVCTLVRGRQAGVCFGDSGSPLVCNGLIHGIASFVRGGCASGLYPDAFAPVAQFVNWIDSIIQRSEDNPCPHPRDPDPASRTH

Compound	IC50 [nM]
CCCCCCCC[C@@H]1NC(=O)[C@@H]2CCCN2C(=O)[C@H]2CCCN2C(=O)[C@H](Cc2ccc(O)cc2)NC(=O)[C@@H]2CSSC[C@H](NC1=O)C(=O)N[C@@H]([C@@H](C)O)C(=O)N[C@@H](C)C(=O)N[C@@H](CO)C(=O)N[C@@H](CC1CCCCC1)C(=O)N1CCC[C@H]1C(=O)N1CCC[C@H]1C(=O)N[C@@H](CCC(N)=O)C(=O)N2 [Ex. 150] (HELM PEPTIDE1{[CCCCCCCC[C@H](N[*:1])C(=O)[*:2]].C.T.A.S.[Cha].P.P.Q.C.Y.[dP].P}$PEPTIDE1,PEPTIDE1,2:R3-10:R3|PEPTIDE1,PEPTIDE1,1:R1-13:R2$$$V2.0)	10
CC[C@H](C)[C@@H]1NC(=O)[C@H](CO)NC(=O)[C@H](C)NC(=O)[C@H]([C@@H](C)O)NC(=O)[C@@H]2CSSC[C@H](NC(=O)[C@H](CCC(N)=O)NC(=O)[C@@H]3CCCN3C(=O)[C@@H]3CCCN3C1=O)C(=O)N[C@@H](Cc1ccc(O)cc1)C(=O)N1CCC[C@@H]1C(=O)N1CCC[C@H]1C(=O)N[C@@H](C1CCCCC1)C(=O)N2 [Ex. 101] (HELM PEPTIDE1{[O=C([C@@H](N[*:1])C1CCCCC1)[*:2]].C.T.A.S.I.P.P.Q.C.Y.[dP].P}$PEPTIDE1,PEPTIDE1,2:R3-10:R3|PEPTIDE1,PEPTIDE1,1:R1-13:R2$$$V2.0)	49
CCCC[C@@H]1NC(=O)[C@H](CCC(N)=O)NC(=O)[C@H]2CCCN2C(=O)[C@H](Cc2ccc(O)cc2)NC(=O)[C@@H]2CSSC[C@H](NC1=O)C(=O)N[C@@H]([C@@H](C)O)C(=O)N[C@@H](C)C(=O)N[C@@H](CO)C(=O)N[C@@H](CC1CCCCC1)C(=O)N1CCC[C@H]1C(=O)N1CCC[C@H]1C(=O)N[C@@H](CCC(N)=O)C(=O)N2 [compound 170] (HELM PEPTIDE1{[Nle].C.T.A.S.[Cha].P.P.Q.C.Y.[dP].Q}$PEPTIDE1,PEPTIDE1,2:R3-10:R3|PEPTIDE1,PEPTIDE1,1:R1-13:R2$$$V2.0)	16
CCCCCCCC[C@@H]1NC(=O)[C@@H]2CCCN2C(=O)[C@H]2CCCN2C(=O)[C@H](Cc2ccccc2)NC(=O)[C@@H]2CSSC[C@H](NC1=O)C(=O)N[C@@H]([C@@H](C)O)C(=O)N[C@@H](C)C(=O)N[C@@H](CO)C(=O)N[C@@H](CC1CCCCC1)C(=O)N1CCC[C@H]1C(=O)N1CCC[C@H]1C(=O)N[C@@H](CCC(N)=O)C(=O)N2 [Ex. 157] (HELM PEPTIDE1{[CCCCCCCC[C@H](N[*:1])C(=O)[*:2]].C.T.A.S.[Cha].P.P.Q.C.F.[dP].P}$PEPTIDE1,PEPTIDE1,2:R3-10:R3|PEPTIDE1,PEPTIDE1,1:R1-13:R2$$$V2.0)	7
CCCC[C@@H]1NC(=O)[C@@H]2CCCN2C(=O)[C@H]2CCCN2C(=O)[C@H](Cc2ccc(O)cc2)NC(=O)[C@@H]2CSSC[C@H](NC1=O)C(=O)N[C@@H]([C@@H](C)O)C(=O)N[C@@H](C)C(=O)N[C@@H](CO)C(=O)N[C@@H](CCCC)C(=O)N1CCC[C@H]1C(=O)N1CCC[C@H]1C(=O)N[C@@H](CCC(N)=O)C(=O)N2 [Ex. 79] (HELM PEPTIDE1{[Nle].C.T.A.S.[Nle].P.P.Q.C.Y.[dP].P}$PEPTIDE1,PEPTIDE1,2:R3-10:R3|PEPTIDE1,PEPTIDE1,1:R1-13:R2$$$V2.0)	66
CCCCCCCC[C@@H]1NC(=O)[C@@H]2CCCN2C(=O)[C@H]2CCCN2C(=O)[C@H](CCC(N)=O)NC(=O)[C@@H]2CSSC[C@H](NC1=O)C(=O)N[C@@H]([C@@H](C)O)C(=O)N[C@@H](C)C(=O)N[C@@H](CO)C(=O)N[C@@H](CC1CCCCC1)C(=O)N1CCC[C@H]1C(=O)N1CCC[C@H]1C(=O)N[C@@H](CCC(N)=O)C(=O)N2 [Ex. 159] (HELM PEPTIDE1{[CCCCCCCC[C@H](N[*:1])C(=O)[*:2]].C.T.A.S.[Cha].P.P.Q.C.Q.[dP].P}$PEPTIDE1,PEPTIDE1,2:R3-10:R3|PEPTIDE1,PEPTIDE1,1:R1-13:R2$$$V2.0)	7
CC[C@H](C)[C@@H]1NC(=O)[C@H](CO)NC(=O)[C@H](C)NC(=O)[C@H]([C@@H](C)O)NC(=O)[C@H](CCC(N)=O)NC(=O)[C@H](CCc2ccccc2)NC(=O)[C@@H]2CCCN2C(=O)[C@H]2CCCN2C(=O)[C@H](Cc2ccc(O)cc2)NC(=O)[C@H]([C@@H](C)O)NC(=O)[C@H](CCC(N)=O)NC(=O)[C@@H]2CCCN2C(=O)[C@@H]2CCCN2C1=O [Ex. 142] (HELM PEPTIDE1{[O=C([C@H](CCc1ccccc1)N[*:1])[*:2]].Q.T.A.S.I.P.P.Q.T.Y.[dP].P}$PEPTIDE1,PEPTIDE1,1:R1-13:R2$$$V2.0)	16
CCCCCCCC[C@@H]1NC(=O)[C@@H]2CCCN2C(=O)[C@H]2CCCN2C(=O)[C@H](CCC(N)=O)NC(=O)[C@@H]2CSSC[C@H](NC1=O)C(=O)N[C@@H]([C@@H](C)O)C(=O)N[C@@H](C)C(=O)N[C@@H](CO)C(=O)N[C@@H]([C@@H](C)CC)C(=O)N1CCC[C@H]1C(=O)N1CCC[C@H]1C(=O)N[C@@H](CCC(N)=O)C(=O)N2 [Ex. 149] (HELM PEPTIDE1{[CCCCCCCC[C@H](N[*:1])C(=O)[*:2]].C.T.A.S.I.P.P.Q.C.Q.[dP].P}$PEPTIDE1,PEPTIDE1,2:R3-10:R3|PEPTIDE1,PEPTIDE1,1:R1-13:R2$$$V2.0)	11
CCCC[C@@H]1NC(=O)[C@H](CCC(N)=O)NC(=O)[C@H]2CCCN2C(=O)[C@H](Cc2ccccc2Cl)NC(=O)[C@@H]2CSSC[C@H](NC1=O)C(=O)N[C@@H]([C@@H](C)O)C(=O)N[C@@H](C)C(=O)N[C@@H](CO)C(=O)N[C@@H](CC1CCCCC1)C(=O)N1CCC[C@H]1C(=O)N1CCC[C@H]1C(=O)N[C@@H](CCC(N)=O)C(=O)N2 [compound 175] (HELM PEPTIDE1{[Nle].C.T.A.S.[Cha].P.P.Q.C.[O=C([C@H](Cc1ccccc1Cl)N[*:1])[*:2]].[dP].Q}$PEPTIDE1,PEPTIDE1,2:R3-10:R3|PEPTIDE1,PEPTIDE1,1:R1-13:R2$$$V2.0)	12
CC[C@H](C)[C@@H]1NC(=O)[C@H](CO)NC(=O)[C@H](C)NC(=O)[C@H]([C@@H](C)O)NC(=O)[C@@H]2CSSC[C@H](NC(=O)[C@H](CCC(N)=O)NC(=O)[C@@H]3CCCN3C(=O)[C@@H]3CCCN3C1=O)C(=O)N[C@@H](Cc1ccc(O)cc1)C(=O)N1CCC[C@@H]1C(=O)N[C@@H](CCC(N)=O)C(=O)N[C@@H](CCc1ccccc1)C(=O)N2 [compound 173] (HELM PEPTIDE1{[O=C([C@H](CCc1ccccc1)N[*:1])[*:2]].C.T.A.S.I.P.P.Q.C.Y.[dP].Q}$PEPTIDE1,PEPTIDE1,2:R3-10:R3|PEPTIDE1,PEPTIDE1,1:R1-13:R2$$$V2.0)	12
CCCC[C@@H]1NC(=O)[C@@H]2CCCN2C(=O)[C@H]2CCCN2C(=O)[C@H](Cc2ccc(O)cc2)NC(=O)[C@H](CCC(N)=O)NC(=O)[C@H](CCC(N)=O)NC(=O)[C@@H]2CCCN2C(=O)[C@@H]2CCCN2C(=O)[C@H](CC2CCCCC2)NC(=O)[C@H](CO)NC(=O)[C@H](C)NC(=O)[C@H]([C@@H](C)O)NC(=O)[C@H]([C@@H](C)O)NC1=O [Ex. 139] (HELM PEPTIDE1{[Nle].T.T.A.S.[Cha].P.P.Q.Q.Y.[dP].P}$PEPTIDE1,PEPTIDE1,1:R1-13:R2$$$V2.0)	18
CCCCCCCC[C@@H]1NC(=O)[C@H](CCC(=O)O)NC(=O)[C@@H](CCCCN)NC(=O)[C@H](Cc2ccc(O)cc2)NC(=O)[C@@H]2CSSC[C@H](NC1=O)C(=O)N[C@@H]([C@@H](C)O)C(=O)N[C@@H](C)C(=O)N[C@@H](CO)C(=O)N[C@@H]([C@@H](C)CC)C(=O)N1CCC[C@H]1C(=O)N1CCC[C@H]1C(=O)N[C@@H](CCC(N)=O)C(=O)N2 [compound 165] (HELM PEPTIDE1{[CCCCCCCC[C@H](N[*:1])C(=O)[*:2]].C.T.A.S.I.P.P.Q.C.Y.[dK].E}$PEPTIDE1,PEPTIDE1,2:R3-10:R3|PEPTIDE1,PEPTIDE1,1:R1-13:R2$$$V2.0)	22
CCCCCCCC[C@@H]1NC(=O)[C@@H]2CCCN2C(=O)[C@H]2CCCN2C(=O)[C@H](Cc2ccc(O)cc2)NC(=O)[C@H](CCC(N)=O)NC(=O)[C@H](CCC(N)=O)NC(=O)[C@@H]2CCCN2C(=O)[C@@H]2CCCN2C(=O)[C@H]([C@@H](C)CC)NC(=O)[C@H](CO)NC(=O)[C@H](C)NC(=O)[C@H]([C@@H](C)O)NC(=O)[C@H]([C@@H](C)O)NC1=O [Ex. 147] (HELM PEPTIDE1{[CCCCCCCC[C@H](N[*:1])C(=O)[*:2]].T.T.A.S.I.P.P.Q.Q.Y.[dP].P}$PEPTIDE1,PEPTIDE1,1:R1-13:R2$$$V2.0)	11
CCCC[C@@H]1NC(=O)[C@@H]2CCCN2C(=O)[C@@H](CO)NC(=O)[C@H](Cc2ccc(O)cc2)NC(=O)[C@@H]2CSSC[C@H](NC1=O)C(=O)N[C@@H]([C@@H](C)O)C(=O)N[C@@H](C)C(=O)N[C@@H](CO)C(=O)N[C@@H]([C@@H](C)CC)C(=O)N1CCC[C@H]1C(=O)N1CCC[C@H]1C(=O)N[C@@H](CCC(N)=O)C(=O)N2 [Ex. 118] (HELM PEPTIDE1{A.S.I.P.P.Q.C.Y.[dS].P.[Nle].C.T}$PEPTIDE1,PEPTIDE1,7:R3-12:R3|PEPTIDE1,PEPTIDE1,1:R1-13:R2$$$V2.0)	43
CCCCCCCC[C@@H]1NC(=O)[C@H](CO)NC(=O)[C@H](C)NC(=O)[C@H]([C@@H](C)O)NC(=O)[C@@H]2CSSC[C@H](NC(=O)[C@H](CCC(N)=O)NC(=O)[C@@H]3CCCN3C(=O)[C@@H]3CCCN3C1=O)C(=O)N[C@@H](Cc1ccc(O)cc1)C(=O)N1CCC[C@@H]1C(=O)N1CCC[C@H]1C(=O)N[C@@H](CCc1ccccc1)C(=O)N2 [Ex. 161] (HELM PEPTIDE1{[O=C([C@H](CCc1ccccc1)N[*:1])[*:2]].C.T.A.S.[CCCCCCCC[C@H](N[*:1])C(=O)[*:2]].P.P.Q.C.Y.[dP].P}$PEPTIDE1,PEPTIDE1,2:R3-10:R3|PEPTIDE1,PEPTIDE1,1:R1-13:R2$$$V2.0)	6
